Results: patent US5849736A, “Isoxazoline and isoxazole fibrinogen receptor antagonists” (The DuPont Merck Pharmaceutical Company, priority 1995, dated 1998)
Counter-ions that a name gives are not always drawn. Like-named read-outs stand apart in the source and are kept apart here.

Tested on: platelet aggregation in human platelet rich plasma (PRP)
Assay: Platelet Aggregation Assay (platelet rich plasma, with or without esterase pretreatment)
Assay type: cell-based
Experimental: Venous blood was obtained from the arm of a healthy human donor who was drug-free and aspirin-free for at least two weeks prior to blood collection. Blood was collected into 10 mL citrated Vacutainer tubes. The blood was centrifuged for 15 minutes at 150×g at room temperature, and platelet-rich plasma (PRP) was removed. The remaining blood was centrifuged for 15 minutes at 1500×g at room temperature, and platelet-poor plasma (PPP) was removed. Samples were assayed on a aggregometer (PAP-4 Platelet Aggregation Profiler), using PPP as the blank (100% transmittance). 200 μL of PRP was added to each micro test tube, and transmittance was set to 0%. 20 μL of various agonists (ADP, collagen, arachidonate, epinephrine, thrombin) were added to each tube, and the aggregation profiles were plotted (% transmittance versus time). The results are expressed as % inhibition of agonist-induced platelet aggregation. For the IC50 evaluation, the test compounds were added at various concentrations prior to the activation of the platelets.
Ester prodrugs were preincubated (10^-3 M F.C.) with 100 IU/mL Porcine liver esterase (Sigma Chemical Co., St. Louis, Mo., #E-3128) for 2 hours at 37° C. Aliquots are then diluted in 0.1M Tris, pH 7.4, to the desired concentrations. Aliquots of 20 μl of the esterase pretreated prodrugs are added to 200 μl of human platelet rich plasma. Samples were placed in platelet profiler (aggregometer) for 8 minutes at 37° C., followed by the addition of 100 μM Adenosine Diphosphate, (Sigma Chemical Co., St. Louis, Mo., #A-6521), to induce platelet aggregation. Platelet aggregation was allowed to proceed for 5 minutes. Percent inhibition is calculated using percent aggregation in the presence of the test compound divided by percent aggregation of control, times 100. This value is subtracted from 100, yielding percent inhibition. Calculation of IC50 is performed on a Texas Instruments TI59 with an IC50 program.
Table A below sets forth the antiplatelet activity of representative compounds of the present invention. The indicated compounds were tested for their ability to inhibit platelet aggregation (using platelet rich plasma (PRP)). The IC50 value (the concentration of antagonist which inhibits platelet aggregation by 50% relative to a control lacking the antagonist) is shown. In Table 5 the IC50 values are expressed as: +++=IC50 of <10 μM; ++=IC50 of 10-50 μM; +=IC50 of 50-100 μM (μM=micromolar).

[1] = Platelet, preincubated with 100 IU/mL porcine liver esterase 2 hours at 37° C., 100 μM ADP, read-out: Platelet Aggregation Assay IC50 (with esterase)
[2] = Platelet, without esterase, read-out: Platelet Aggregation Assay IC50 (without esterase)
[3] = preincubated with 100 IU/mL porcine liver esterase 2 hours at 37° C., 100 μM ADP, read-out: Platelet Aggregation Assay IC50 (with esterase)

Structure (SMILES)	IC50 [1]	further results
COc1ccccc1CNC(=N)c1ccc(C2=NOC(CC(=O)NCC(NS(=O)(=O)c3ccccc3C)C(=O)O)C2)cc1 (stereo not shown) [Example 2112]	< 10 µM	–
COC(=O)C(CNC(=O)CC1CC(c2ccc(C(=N)N)cc2)=NO1)NS(=O)(=O)c1c(C)cc(C)cc1C (stereo not shown) [Example 478]	< 10 µM	–
COC(=O)C(CNC(=O)CC1CC(c2ccc(C(=N)N)cc2)=NO1)NC(=O)OCC(C)C (stereo not shown) [Example 531]	< 10 µM	–
COC(=O)C(CNC(=O)CC1CC(c2ccc(C(=N)N)cc2)=NO1)NS(=O)(=O)c1cccc(Cl)c1 (stereo not shown) [Example 476]	< 10 µM	–
COC(=O)CC(C#C[Si](C)(C)C)NC(=O)CC1CC(c2ccc(C(=N)N)cc2)=NO1 (stereo not shown) [Example 457]	< 10 µM	–
COC(=O)CC(NC(=O)CC1CC(c2ccc(C(=N)N)cc2)=NO1)C(=O)N(C)CCc1ccccc1 (stereo not shown) [Example 454]	< 10 µM	–
N=C(N)c1ccc(C2=NOC(CC(=O)NC(CC(=O)O)c3ccccc3)C2)cc1 (racemic) [Example 43, N-[3-(4-Amidinophenyl)isoxazolin-5(R,S)-ylacetyl]-(R,S)-3-amino-3-phenylpropanoic Acid]	–	IC50 [2]: < 10 µM
CCc1ccc(C(=O)NC(CNC(=O)CC2CC(c3ccc(C(=N)N)cc3)=NO2)C(=O)OC)cc1 (stereo not shown) [Example 522]	< 10 µM	–
N=C(N)NCC1CC(CCC(=O)NCC(NC(=O)OCc2ccccc2)C(=O)O)=NO1 (stereo not shown) [Example 2281]	< 10 µM	–
COC(=O)C(CNC(=O)CC1CC(c2ccc(C(=N)N)cc2)=NO1)NS(=O)(=O)NCC(C)C (stereo not shown) [Example 505]	< 10 µM	–
COC(=O)C(CNC(=O)CC1CC(c2ccc(C(=N)N)cc2)=NO1)NS(=O)(=O)Nc1ccccc1 (stereo not shown) [Example 509]	< 10 µM	–
CCCCOC(=O)NC(CNC(=O)Cc1cc(-c2ccc(C(=N)N)cc2)no1)C(=O)OC (stereo not shown) [Example 729]	< 10 µM	–
CCOC(=O)CC(CN(C)C)NC(=O)CC1CC(c2ccc(C(=N)N)cc2)=NO1 (stereo not shown) [Example 166]	< 10 µM	–
COC(=O)C(CNC(=O)CC1CC(c2ccc(C(=N)N)cc2)=NO1)NS(=O)(=O)c1ccccc1C(F)(F)F (stereo not shown) [Example 480]	< 10 µM	–
COC(=O)C(CNC(=O)CC1CC(c2ccc(C(=N)N)cc2)=NO1)NS(=O)(=O)c1ccc(C(F)(F)F)cc1 (stereo not shown) [Example 481]	< 10 µM	–
COC(=O)C[C@@H](CCc1ccccc1)NC(=O)CC1CC(c2ccc(C(=N)N)cc2)=NO1 (stereo partly drawn) [Example 120a, Methyl 3(R)-{5(R,S)-N-[3-(4-amidinophenyl)isoxazolin-5-ylacetyl]amino}-3-phenethylpropanoate]	< 10 µM	–
COC(=O)[C@H](CNC(=O)CC1CC(c2ccc(C(=N)N)cc2)=NO1)NS(=O)(=O)c1cccc(C)c1 (stereo partly drawn) [Example 473B, Methyl N^2-3-methylphenylsulfonyl-N^3-[3-(4-amidinophenyl)-5S-ylacetyl]-S-2,3-diaminopropionate trifluoroacetic acid salt]	–	IC50 [3]: < 10 µM
COC(=O)C(CNC(=O)CC1CC(c2ccc(C(=N)N)cc2)=NO1)NS(=O)(=O)c1ccc(Cl)cc1 (stereo not shown) [Example 487]	< 10 µM	–
COC(=O)CC(CNS(=O)(=O)c1ccccc1)NC(=O)CC1CC(c2ccc(C(=N)N)cc2)=NO1 (racemic) [Example 359, Methyl 3(R,S) -{5(R,S)-N-[3-(4-amidinophenyl)isoxazolin-5-ylacetyl]amino}-4-(phenylsulfonamido)butanoate . trifluoroacetic acid salt]	< 10 µM	–
CCNC(=N)c1ccc(C2=NOC(CC(=O)NCC(NS(=O)(=O)c3ccccc3C)C(=O)OC)C2)cc1 (stereo not shown) [Example 2115]	< 10 µM	–
N=C(N)NCCC1CC(CCC(=O)NCC(NC(=O)OCc2ccccc2)C(=O)O)=NO1 (stereo not shown) [Example 2280]	< 10 µM	–
N=C(N)c1ccc(C2=NOC(CC(=O)NC(CC(=O)O)C(=O)NCC34CC5CC(CC(C5)C3)C4)C2)cc1 (stereo not shown) [Example 463]	–	IC50 [2]: < 10 µM
COC(=O)C(CNC(=O)CC1CC(c2ccc(C(=N)N)cc2)=NO1)NS(=O)(=O)CCc1ccccc1 (stereo not shown) [Example 491]	< 10 µM	–
COC(=O)C(CNC(=O)CC1CC(c2ccc(C(=N)NCc3ccccc3OC)cc2)=NO1)NS(=O)(=O)c1ccccc1C (stereo not shown) [Example 2111]	< 10 µM	–
COC(=O)C[C@@H](CCc1ccccc1)NC(=O)C[C@H]1CC(c2ccc(C(=N)N)cc2)=NO1 [120C (3R)]	–	IC50 [3]: < 10 µM

Structure (SMILES)	IC50 [1]	further results
CCCCOC(=O)N[C@@H](CNC(=O)CC1=NOC(c2ccc(C(=N)N)cc2)C1)C(=O)OC (stereo partly drawn) [Example 829, Methyl N^2-n-butyloxycarbonyl-N^3-[5-(4-amidinophenyl)isoxazolin-3-ylacetyl]-(2S)-2,3-diaminopropionate]	< 10 µM	–
COC(=O)CC(NC(=O)CC1CC(c2ccc(C(=N)N)cc2)=NO1)C(=O)N1CCSC1 (stereo not shown) [Example 469]	< 10 µM	–
COC(=O)C(CNC(=O)CC1CC(c2ccc(C(=N)N)cc2)=NO1)NC(=O)OCc1ccccc1Cl (stereo not shown) [Example 525]	< 10 µM	–
COC(=O)CC1CCCCN1C(=O)CC1CC(c2ccc(C(=N)N)cc2)=NO1 (stereo not shown) [Example 394]	< 10 µM	–
O=C(N[C@H](C(=O)O)C1CC(c2ccc(OCCC3CCNCC3)cc2)=NO1)OCc1ccccc1 (single isomer, unassigned) [4 (isomer B), Trifluoroacetic Acid Salt]	–	IC50 [2]: 10 to 50 µM
COC(=O)C(CNC(=O)CC1CC(c2ccc(C(=N)N)cc2)=NO1)NS(=O)(=O)c1ccc(Br)s1 (stereo not shown) [Example 549]	< 10 µM	–
N=C(N)NCCC1=NOC(C(=O)NCC(NC(=O)OCc2ccccc2)C(=O)O)C1 (stereo not shown) [Example 2405]	< 10 µM	–
COC(=O)C(CNC(=O)CC1CC(c2ccc(C(=N)N)cc2)=NO1)NS(=O)(=O)c1c(C)nn(C)c1Cl (stereo not shown) [Example 547]	< 10 µM	–
N=C(N)NCCC1CC(C(=O)NCC(NC(=O)OCc2ccccc2)C(=O)O)=NO1 (stereo not shown) [Example 1525]	< 10 µM	–
COC(=O)[C@H](CNC(=O)CC1CC(c2ccc(C(=N)N)cc2)=NO1)NS(=O)(=O)Cc1ccccc1 (stereo partly drawn) [328 (2S)]	–	IC50 [3]: < 10 µM
COC(=O)C(CNC(=O)CC1CC(c2ccc(C(=N)N)cc2)=NO1)NS(=O)(=O)c1cc(C)c(Cl)cc1C (stereo not shown) [Example 541]	< 10 µM	–
COC(=O)[C@H](CNC(=O)CC1CC(c2ccc(C(=N)N)cc2)=NO1)NS(=O)(=O)C=C(c1ccccc1)c1ccccc1 (stereo partly drawn) [Example 496, Methyl N^2-(2,2-diphenyl-1-ethenesulfonyl)-N^3-[3-(4-amidinophenyl)isoxazolin-5-(R,S)-ylacetyl]-(S)-2,3-diaminopropionate, trifluoroacetic acid salt]	< 10 µM	–
COC(=O)C(CNC(=O)CC1CC(c2ccc(C(=N)N)cc2)=NO1)NC(=O)OCCCC(F)(F)F (stereo not shown) [Example 537]	< 10 µM	–
COC(=O)CC(CCCc1ccccc1)NC(=O)CC1CC(c2ccc(C(=N)N)cc2)=NO1 (stereo not shown) [Example 446]	< 10 µM	–
O=C(O)CC1CC(c2ccc(OCCC3CCNCC3)cc2)=NO1 (racemic) [Example 1, 3-(4-[2-Piperidin-4-yl)ethoxy]phenyl]-(5R,S)-isoxazolin-5-ylacetic Acid, Trifluoroacetic Acid Salt]	–	IC50 [2]: < 10 µM
COC(=O)CC(NC(=O)CC1CC(c2ccc(C(=N)N)cc2)=NO1)C(=O)N1CCc2ccccc2C1 (stereo not shown) [Example 465]	< 10 µM	–
COC(=O)C(CNC(=O)CC1CC(c2ccc(C(=N)N)cc2)=NO1)NS(=O)(=O)c1cccc(Br)c1 (stereo not shown) [Example 544]	< 10 µM	–
COC(=O)C(CNC(=O)CC1CC(c2ccc(C(=N)N)cc2)=NO1)NS(=O)(=O)c1ccc(I)cc1 (stereo not shown) [Example 474]	< 10 µM	–
COC(=O)C(CNC(=O)CC1CC(c2ccc(C(=N)N)cc2)=NO1)NS(=O)(=O)NC(C)(C)C (stereo not shown) [Example 506]	< 10 µM	–
COC(=O)C(CNC(=O)CC1CC(c2ccc(C(=N)N)cc2)=NO1)NS(=O)(=O)c1ccc(F)cc1 (stereo not shown) [Example 483]	< 10 µM	–
N=C(N)NCCCC1=NOC(C(=O)NCC(NC(=O)OCc2ccccc2)C(=O)O)C1 (stereo not shown) [Example 2401]	< 10 µM	–
COC(=O)C(CNC(=O)CC1CC(c2ccc(C(=N)N)cc2)=NO1)NS(=O)(=O)NC(C)C (stereo not shown) [Example 507]	< 10 µM	–
COC(=O)CC(NC(=O)CC1CC(c2ccc(C(N)=NC(=O)OC(C)(C)C)cc2)=NO1)C(=O)N1CCN(Cc2ccccc2)CC1 (stereo not shown) [Example 453]	< 10 µM	–
COC(=O)C(CNC(=O)CC1CC(c2ccc(C(=N)N)cc2)=NO1)NC(=O)OCc1ccccc1Br (stereo not shown) [Example 527]	< 10 µM	–
